Reference: US7019028B2, “Endiandric acid H and its derivatives, process for their preparation and use thereof” (Aventis Pharma Deutschland GmbH, priority 2002, dated 2006)

Tests used:
[1] = Solubility (characterization of endiandric acid H); assay type: physicochemical
[2] = Stability in the solid state and in solution; assay type: physicochemical; conditions: solid state; solutions in the pH range between 3 and 8, in particular 4 and 6
[3] = molecular target: T1, c-maf (Mus musculus, UniProt P54843); experiment: Bioassay: human IL-4 promoter/luciferase reporter in c-maf/IL-4 luc/NFAT CHO-K1 cell line; assay type: cell-based, murine; conditions: CHO-K1 cells with c-maf/IL-4 luc/NFAT vectors, 8 hours incubation; read-out: IC50 in the bioassay (inhibition of luciferase expression)
T1 construct: expressed in transfected cells; host or cells: CHO-K1 (monoclonal line c-maf/IL-4 luc/NFAT)
T1 sequence (P54843 1-370): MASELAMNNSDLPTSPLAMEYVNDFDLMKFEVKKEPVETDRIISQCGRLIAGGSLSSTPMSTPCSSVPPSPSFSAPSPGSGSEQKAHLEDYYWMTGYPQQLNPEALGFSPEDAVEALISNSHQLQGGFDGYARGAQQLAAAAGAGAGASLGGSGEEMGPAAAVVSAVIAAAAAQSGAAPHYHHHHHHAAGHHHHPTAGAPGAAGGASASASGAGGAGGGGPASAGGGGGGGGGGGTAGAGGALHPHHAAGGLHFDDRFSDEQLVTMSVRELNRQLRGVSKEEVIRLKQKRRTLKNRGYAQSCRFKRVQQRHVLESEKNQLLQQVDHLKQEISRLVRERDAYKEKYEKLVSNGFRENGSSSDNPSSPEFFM
Protocol: The zipper protein c-maf represents the assay target. It plays an important part in the release of mediators of inflammation, especially IL-4, and thus in the manifestation of inflammatory symptoms in asthma and allergies. c-maf is thus an important therapeutic target molecule for asthma, especially if it has an allergic cause. The activity of c-maf is measured in the assay on the basis of the IL-4 transcription rate. Compounds which interfere with the binding of the two transcription factors c-maf and NFAT lead in this case to a reduced expression of luciferase (read-out) through suppression of the transcription of a human IL-4 promoter/luciferase construct. […]
16 hours before the assay, CHO-K1 cells were harvested by trypsinization, washed once with PBS without Ca and Mg, resuspended in Ham's F-12 medium which additionally contained 10% fetal calf serum, 1% antibiotic/antimycotic, 0.001% Pluronic, 300 μg/ml Geneticin and 300 μg/ml Zeocin, and then quantified using a hemocytometer. […]
After the incubation time, the cells are in each case mixed with 3 μl of Bright-Glow™ luciferase assay reagent (Promega Corporation, Madison, USA) per well. The plates are then placed in the dark for 30 minutes and subsequently measured in a CyBiTM Lumax reader. […]
The inhibition was calculated as follows: [1−(LCSsample−LCSposcontr)/(LCSnegcontr−LCSposcontr)]×100(%)

O=C(O)C[C@@H]1[C@H]2C=C[C@H]3C(c4ccc5c(c4)OCO5)=C[C@@H](O)[C@@H]4C[C@H]1[C@@H]2[C@H]43 [Endiandric acid H, endiandric acid H]
Solubility in polar organic solvents ([1]; polar organic solvents): soluble in polar organic solvents | Solubility in water ([1]; water): only slightly soluble in water | Stability [2]: stable in the solid state and in solutions in the pH range between 3 and 8 | IC50 [3]: 1.5 µM
